Literature values, collected in patent US20150174160A1, “METHODS FOR TREATING, DIAGNOSING AND/OR MONITORING PROGRESSION OF OXO ASSOCIATED STATES” (priority 2012, published 2015).

Settings: for 2 years in humans

O=C(O)CCCCC1CCSS1 (stereo not drawn) [ALA, alpha-lipoic acid]
safe dose: up to 2 grams daily
